The test system of test [1] is SARS-CoV-2. Description: Antiviral activity against SARS-CoV-2 infected in vero E6 cells assessed as inhibition of viral replication at 100 uM preincubated for 1 hr followed by viral infection for 24 hrs by qRT-PCR analysis. The test is classed as functional, organism-based. The following applies: Severe acute respiratory syndrome coronavirus 2, Vero C1008, time 25.0 hrs. (In general: In qPCR the cycle at which signal appears reflects the starting amount.)

The subject of test [2] is SARS-CoV-2. The experiment in a line: Antiviral activity against SARS-CoV-2 infected in vero E6 cells assessed as inhibition of viral replication at 100 uM preincubated for 1 hr followed by viral infection for 2 hrs by qRT-PCR analysis. Format: functional, organism-based. The following applies: Severe acute respiratory syndrome coronavirus 2, Vero C1008, time 3.0 hrs.

The source of these data is ChEMBL document CHEMBL5038605, “Probing the Allosteric Inhibition Mechanism of a Spike Protein Using Molecular Dynamics Simulations and Active Compound Identifications” (J Med Chem, 2022).

Activity calls are given as the source filed them. No cut-off for these calls is given here.

`CCn1ccc(-c2nc(C)nn2-c2cc(S(N)(=O)=O)ccc2F)cc1=O`: in the test with SARS-CoV-2 [1], the outcome was Active.

Take `O=C(O)c1ccc(OCc2cccc3ccccc23)cc1`: the outcome with SARS-CoV-2 [1] was Active.

For the compound `Cc1ccc2nc(C34CC5CC(CC(C5)C3)C4)cc(C(=O)O)c2c1`, the outcome in the test with SARS-CoV-2 [1] was Active.

Regarding `Cc1nn(-c2ccccc2)c(Oc2ccccc2)c1CCC(=O)Nc1ccccc1`, the result with SARS-CoV-2 [1] was Active.

As to `O=C(O)c1cccc(-c2ccc(CNCCc3ccccc3)o2)c1`, the result in the test with SARS-CoV-2 [1] and with SARS-CoV-2 [2] was Active.

Consider `CC(=O)N1CCN(c2nc(C)cc(Nc3ccccc3)n2)CC1`, for which the result with SARS-CoV-2 [1] was Active.

For the compound `Cn1cc(-c2cc3n(n2)CCC(=O)N3CC(=O)NCc2ccco2)c2ccccc21`, in the test with SARS-CoV-2 [1], the result was Active.
